Measurements: patent US10195156B2, “Compounds and compositions for intracellular delivery of agents” (ModernaTX, Inc., priority 2015, dated 2019)

How the values were obtained:
[1] = Particle size and polydispersity index of nanoparticle compositions (Zetasizer Nano ZS); assay type: physicochemical; conditions: for particle size, rank within the named table (in words): comparison amongst compositions
Method in brief: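 Values are size and PDI readings from a Zetasizer Nano ZS. Measurements are taken in 1×PBS; zeta potential, by contrast, uses 15 mM PBS.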

[2] = Encapsulation efficiency of RNA (QUANT-IT RIBOGREEN RNA assay); assay type: physicochemical; conditions: for encapsulation efficiency, rank within the named table (in words): comparison amongst compositions
Method in brief: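 RiboGreen fluorescence (ex ~480, em ~520 nm) measured after 15 min at 37 °C on samples at ~5 μg/mL in TE, pH 7.5, ± 2% Triton X-100 solution. After blank subtraction, free RNA is given as intact-sample signal divided by disrupted-sample signal.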

[3] = pKa of nanoparticle compositions; assay type: physicochemical
[4] = system: luciferase (Luc) mRNA expression; test: Expression of Luc induced by sample formulations, whole-body bioluminescence after intravenous administration; assay type: in vivo; conditions: mice, i.v., 0.5 mg/kg
Method in brief: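 Read-out is whole-body bioluminescence at 3, 6 and 24 h after a single intravenous dose of 0.5 mg/kg Luc mRNA in nanoparticle formulations. Groups of n=6 mice; PBS and standard MC3 formulation as references.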

[5] = system: modified luciferase expression; test: Expression of Luc in different organs (liver, lung, spleen, femur) 6 hours after intravenous administration; assay type: in vivo; conditions: i.v., 0.5 mpk
Description: The efficacy of the nanoparticle compositions presented in Tables 1, 1a, 17-1, 19-1, 20-1 and 21-1 was further evaluated by measuring the expression of modified luciferase in the liver, lung, spleen, and femur upon administration of a given composition. Formulations were administered intravenously to mice (n=3) at a dosage of 0.5 mpk and bioluminescence measured after 6 hours. The standard MC3 formulation and a PBS control were also tested.

[6] = Lipid clearance: % dose remaining in mouse liver 6 h and 24 h after administration of nanoparticle compositions; assay type: in vivo, CD-1 mice; conditions: CD-1 mice
Text: In contrast, hEPO expression in rats induced by administration of a nanoparticle composition including a compound according to one of formulae (I), (Ia1)-(Ia6), (Ib), (II), (IIa), (III), and (IIIa) was substantially […] than that measured for MC3. […] Table 7c and 7d show additional protein expressions and clearance data from compositions with various compounds disclosed herein as compared to with MC3.

[7] = system: IL-6; test: Cytokine production induced by sample formulations: IL-6; assay type: in vivo; conditions: mice, i.v., 0.5 mpk, 6 hours; for IL-6: in pg/mL (unit assumed)
Method in brief: (§1)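 Cytokine levels were quantified at 6 hours in mice given the nanoparticle compositions i.v. at 0.5 mpk. MC3 standard formulation and PBS served as comparators.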

[8] = system: IP-10; test: Cytokine production induced by sample formulations: IP-10; assay type: in vivo; conditions: mice, i.v., 0.5 mpk, 6 hours; for IP-10: in pg/mL (unit assumed)
Method in brief: as §1

[9] = Table 1, rows without footnote mark
[10] = Table 1, rows without footnote mark (lipid:DOPE:cholesterol:PEG-DMG 40:20:38.5:1.5, Luc mRNA; MC3 standard formulation)
[11] = Table 20-1, rows without footnote mark
[12] = Table 1, * lipid:DSPC:Chol:PEG-DMG 50:10:38.5:1.5

CCCCCCCCCN(CCCCCCCCC)CCN(CCCCCCCCC)CC(=O)N1CC2CC1CN2C(=O)CN(CCCCCCCCC)CCCCCCCCC (stereo not shown) [Compound 42, 2-(Dinonylamino)-1-(5-(N-(2-(dinonylamino)ethyl)-N-nonylglycyl)-2,5-diazabicyclo[2.2.1]heptan-2-yl)ethan-1-one]
PDI [1, 9]: 0.190 | Size (nm) [1, 10]: 116.4 nm | EE (%) [2, 9]: 97.1% | pKa [3, 9]: 6.77 | Total Flux 6 hours ([4]; Table 2): 4.99E+10 | Total Flux Liver ([5]; Table 3, mice): 5.53E+09 | Total Flux Spleen ([5]; Table 3, mice): 2.29E+08 | % Dose remaining 6 h CD-1 mice [6]: 58% | % Dose remaining 24 h CD-1 mice [6]: 53%

CCCCCCCCCN(CCCCCCCCC)CCN(CCCCCCCCC)CCC1CCN(C(=O)CN(CCCCCCCCC)CCCCCCCCC)CC1 [Compound 50, 2-(Dinonylamino)-1-(4-(2-((2-(dinonylamino)ethyl)(nonyl)amino)ethyl)piperidin-1-yl)ethan-1-one]
PDI [1, 9]: 0.190 | Size (nm) [1, 10]: 65.6 nm | particle size, rank within the named table (in words) [1]: smallest particles | EE (%) [2, 9]: 98.7% | pKa [3, 9]: 5.55 | Total Flux 6 hours ([4]; Table 2): 1.48E+08 | Total Flux Liver ([5]; Table 3, mice): 2.14E+07 | Total Flux Spleen ([5]; Table 3, mice): 1.94E+05 | % Dose remaining 6 h CD-1 mice [6]: 56% | % Dose remaining 24 h CD-1 mice [6]: 47%

CCCCCCCCCN(CCCCCCCC(=O)OC)CCN(CCCCCCCCC)CC(=O)N1CCN(C(=O)CN(CCCCCCCCC)CCCCCCCCC)CC1 [Compound 46, Methyl 8-((2-((2-(4-(dinonylglycyl)piperazin-1-yl)-2-oxoethyl)(nonyl)amino)ethyl)(nonyl)amino)octanoate]
PDI [1, 9]: 0.160 | Size (nm) [1, 10]: 81.8 nm | EE (%) [2, 9]: 97.5% | pKa [3, 9]: 6.77 | Total Flux 6 hours ([4]; Table 2): 5.26E+09 | Total Flux Liver ([5]; Table 3, mice): 3.84E+08 | Total Flux Spleen ([5]; Table 3, mice): 4.35E+07 | % Dose remaining 6 h CD-1 mice [6]: 1% | % Dose remaining 24 h CD-1 mice [6]: <1%

CCCCCCCCCN(CCCCCCCCC)CCN(CCCCCCCC(=O)OC)CC(=O)N1CCN(C(=O)CN(CCCCCCCCC)CCCCCCCCC)CC1 [Compound 47, Methyl 8-((2-(dinonylamino)ethyl)(2-(4-(dinonylglycyl)piperazin-1-yl)-2-oxoethyl)amino)octanoate]
PDI [1, 9]: 0.180 | Size (nm) [1, 10]: 89.8 nm | EE (%) [2, 9]: 53.1% | pKa [3, 9]: 6.82 | Total Flux 6 hours ([4]; Table 2): 2.64E+09 | Total Flux Liver ([5]; Table 3, mice): 4.95E+08 | Total Flux Spleen ([5]; Table 3, mice): 1.42E+08 | % Dose remaining 6 h CD-1 mice [6]: 1% | % Dose remaining 24 h CD-1 mice [6]: <1%

CCCCCCCCCCCCCCN(CCCCCCCCCCCCCC)CCN(CCCCCCCCCCCCCC)CCN1CCN(CCN(CCCCCCCCCCCC)CCCCCCCCCCCC)CC1 [Compound 31, N^1-(2-(4-(2-(Didodecylamino)ethyl)piperazin-1-yl)ethyl)-N^1,N^2,N^2-tritetradecylethane-1,2-diamine]
PDI [1, 9]: 0.130 | Size (nm) [1, 10]: 87.9 nm | EE (%) [2, 9]: 77.5% | pKa [3, 9]: 6.31 | Total Flux 3 hours ([4]; Table 2): 1.43E+10 | Total Flux 6 hours ([4]; Table 2): 1.42E+10 | Total Flux 24 hours ([4]; Table 2): 3.07E+08 | Total Flux Femur ([5]; Table 3, mice): 9.89E+05 | Total Flux Liver ([5]; Table 3, mice): 1.54E+09 | Total Flux Lung ([5]; Table 3, mice): 9.81E+06 | Total Flux Spleen ([5]; Table 3, mice): 1.28E+07 | IL-6 ([7]; Table 4): 188 | IP-10 ([8]; Table 4): 2513

CCCCC/C=C\C/C=C\CCCCCCCCN(CCCCCCCC/C=C\C/C=C\CCCCC)CCN(CCO)CCCCCCCCCCCC [Compound 20-13, 2-((2-(Di((9Z,12Z)-octadeca-9,12-dien-1-yl)amino)ethyl)(dodecyl)amino)ethan-1-ol]
PDI [1, 11]: 0.057 | Size (nm) [1, 11]: 74.3 nm | EE (%) [2, 11]: 97.7% | pKa [3, 11]: 5.83 | Total Flux 3 hours ([4]; Table 20-2): 7.01E+08 | Total Flux 6 hours ([4]; Table 20-2): 1.82E+09 | Total Flux 24 hours ([4]; Table 20-2): 7.39E+07 | Total Flux Femur ([5]; Table 20-3, mice): 3.11E+05 | Total Flux Liver ([5]; Table 20-3, mice): 1.65E+08 | Total Flux Lung ([5]; Table 20-3, mice): 9.09E+05 | Total Flux Spleen ([5]; Table 20-3, mice): 1.04E+07 | IL-6 ([7]; Table 20-4, formula (20-I)): 87.8 | IP-10 ([8]; Table 20-4, formula (20-I)): 70.0

CCCCC/C=C\C/C=C\CCCCCCCCN(CCO)CCN(CCCCCCCCCCCC)CCCCCCCCCCCC [Compound 20-25, 2-((2-(Didodecylamino)ethyl)((9Z,12Z)-octadeca-9,12-dien-1-yl)amino)ethan-1-ol]
PDI [1, 11]: 0.171 | Size (nm) [1, 11]: 71.7 nm | EE (%) [2, 11]: 98.4% | pKa [3, 11]: 6.23 | Total Flux 3 hours ([4]; Table 20-2): 1.16E+09 | Total Flux 6 hours ([4]; Table 20-2): 1.78E+09 | Total Flux 24 hours ([4]; Table 20-2): 3.82E+07 | Total Flux Femur ([5]; Table 20-3, mice): 3.13E+05 | Total Flux Liver ([5]; Table 20-3, mice): 1.88E+08 | Total Flux Lung ([5]; Table 20-3, mice): 7.85E+05 | Total Flux Spleen ([5]; Table 20-3, mice): 4.16E+06 | IL-6 ([7]; Table 20-4, formula (20-I)): 20.6 | IP-10 ([8]; Table 20-4, formula (20-I)): 188.0

CCCCC/C=C\C/C=C\CCCCCCCCN(CCCCCCCC/C=C\C/C=C\CCCCC)CCN(CCCCCCCC/C=C\C/C=C\CCCCC)CCN1CCNCC1 [Compound 41, N^1,N^1,N^2-Tri((9Z,12Z)-octadeca-9,12-dien-1-yl)-N^2-(2-(piperazin-1-yl)ethyl)ethane-1,2-diamine]
Size (nm) ([1]; Table 1, * formulated with lipid:DSPC:Chol:PEG-DMG 50:10:38.5:1.5): 69.0 nm | PDI [1, 12]: 0.239 | EE (%) [2, 12]: 99.9% | encapsulation efficiency, rank within the named table (in words) [2]: highest | pKa [3, 12]: 7.02 | Total Flux 3 hours ([4]; Table 2): 4.06E+07 | Total Flux 6 hours ([4]; Table 2): 2.04E+07 | Total Flux 24 hours ([4]; Table 2): 6.05E+07 | Total Flux Liver ([5]; Table 3, mice): 3.00E+06 | Total Flux Lung ([5]; Table 3, mice): 1.34E+05 | Total Flux Spleen ([5]; Table 3, mice): 2.13E+06 | IL-6 ([7]; Table 4): 116 | IP-10 ([8]; Table 4): 350

CCCCCCCCCN(CCO)CCCCCCCCC [Compound 17-10, 2-(Dinonylamino)ethan-1-ol]
PDI ([1]; Table 17-1): 0.239 | Size (nm) ([1]; Table 17-1): 165.0 nm | particle size, rank within the named table (in words) [1]: largest particles | EE (%) ([2]; Table 17-1): 30.3% | encapsulation efficiency, rank within the named table (in words) [2]: did not encapsulate RNA with high efficiency | pKa ([3]; Table 17-1): 2.85 | Total Flux 3 hours ([4]; Table 17-2): 6.61E+05 | Total Flux 6 hours ([4]; Table 17-2): 1.16E+06 | Total Flux 24 hours ([4]; Table 17-2): 4.06E+05 | Total Flux Liver ([5]; Table 17-3, mice): 2.00E+05 | Total Flux Lung ([5]; Table 17-3, mice): 2.52E+04 | Total Flux Spleen ([5]; Table 17-3, mice): 1.74E+04 | IL-6 ([7]; Table 17-4): 7.33 | IL-6 induction, rank within the named table (in words) [7]: lowest IL-6 levels | IP-10 ([8]; Table 17-4): 243

CCCCC/C=C\C/C=C\CCCCCCCCN(CCO)CCCCCCCCC [Compound 17-3, 2-(Nonyl((9Z,12Z)-octadeca-9,12-dien-1-yl)amino)ethan-1-ol]
PDI ([1]; Table 17-1): 0.095 | Size (nm) ([1]; Table 17-1): 117.9 nm | EE (%) ([2]; Table 17-1): 82.1% | pKa ([3]; Table 17-1): 6.69 | Total Flux 3 hours ([4]; Table 17-2): 5.58E+05 | Total Flux 6 hours ([4]; Table 17-2): 1.38E+06 | Total Flux 24 hours ([4]; Table 17-2): 9.90E+05 | Total Flux Liver ([5]; Table 17-3, mice): 2.51E+05 | Total Flux Lung ([5]; Table 17-3, mice): 1.56E+04 | Total Flux Spleen ([5]; Table 17-3, mice): 1.02E+05 | IL-6 ([7]; Table 17-4): 6.97 | IL-6 induction, rank within the named table (in words) [7]: lowest IL-6 levels | IP-10 ([8]; Table 17-4): 66.8 | IP-10 induction, rank or comparison with IL-6 (in words) [8]: lowest IP-10 levels

CCCCCCCCCCCCN(CCCCCCCCCCCC)CCN(CCCCCCCCCCCC)CCN1CCN(CCN(CCCCCC)CCCCCC)CC1 [Compound 21, N^1-(2-(4-(2-(Dihexylamino)ethyl)piperazin-1-yl)ethyl)-N^1,N^2,N^2-tridodecylethane-1,2-diamine]
PDI [1, 9]: 0.239 | Size (nm) [1, 10]: 98.3 nm | EE (%) [2, 9]: 98.6% | pKa [3, 9]: 6.29 | Total Flux 3 hours ([4]; Table 2): 1.13E+10 | Total Flux 6 hours ([4]; Table 2): 1.08E+10 | Total Flux 24 hours ([4]; Table 2): 1.18E+08 | Total Flux Liver ([5]; Table 3, mice): 1.24E+09 | Total Flux Lung ([5]; Table 3, mice): 2.51E+06 | Total Flux Spleen ([5]; Table 3, mice): 1.17E+07 | IL-6 ([7]; Table 4): 48 | IP-10 ([8]; Table 4): 652
